Blank lines part the entries; values can stand above or below the compound they belong to. Activity calls are given as the source filed them.
Assays:
Hexokinase HKDC1 = target: T1, Hexokinase HKDC1 (Homo sapiens, UniProt Q2TB90); test: SAR analysis of small molecule inhibitors of hexokinase domain containing I (HKDC1). [Related pubchem assays (depositor defined):AID493160, AID493190]; format: functional
T1 sequence (Q2TB90 whole entry): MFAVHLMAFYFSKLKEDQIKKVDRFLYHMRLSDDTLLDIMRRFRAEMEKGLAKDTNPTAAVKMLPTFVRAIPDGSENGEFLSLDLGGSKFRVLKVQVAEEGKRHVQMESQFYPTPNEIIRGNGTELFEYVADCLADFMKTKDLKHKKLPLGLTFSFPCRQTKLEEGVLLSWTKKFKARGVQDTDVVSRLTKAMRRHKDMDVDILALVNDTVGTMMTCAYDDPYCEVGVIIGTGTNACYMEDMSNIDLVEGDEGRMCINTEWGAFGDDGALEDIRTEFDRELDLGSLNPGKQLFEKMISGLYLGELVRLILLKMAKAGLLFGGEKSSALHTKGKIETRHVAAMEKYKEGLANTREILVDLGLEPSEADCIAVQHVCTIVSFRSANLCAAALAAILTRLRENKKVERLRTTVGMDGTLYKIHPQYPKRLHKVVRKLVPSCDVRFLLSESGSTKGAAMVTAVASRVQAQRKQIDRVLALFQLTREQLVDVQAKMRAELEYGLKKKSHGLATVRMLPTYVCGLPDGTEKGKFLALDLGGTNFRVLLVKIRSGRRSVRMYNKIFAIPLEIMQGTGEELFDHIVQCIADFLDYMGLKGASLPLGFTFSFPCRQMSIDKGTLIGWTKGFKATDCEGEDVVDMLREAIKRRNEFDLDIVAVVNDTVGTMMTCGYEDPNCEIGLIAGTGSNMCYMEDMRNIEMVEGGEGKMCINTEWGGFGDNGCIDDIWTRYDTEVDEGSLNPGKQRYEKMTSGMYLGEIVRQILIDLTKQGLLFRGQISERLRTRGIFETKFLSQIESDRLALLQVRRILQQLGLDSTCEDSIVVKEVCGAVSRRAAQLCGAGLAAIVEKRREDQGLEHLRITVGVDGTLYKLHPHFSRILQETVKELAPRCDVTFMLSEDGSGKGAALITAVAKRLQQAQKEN

Hexokinase-1 = target: T2, Hexokinase-1 (Homo sapiens, UniProt P19367); test: SAR analysis of small molecule inhibitors of hexokinase domain containing I (HKDC1) in the hexokinase 1 selectivity assay. [Related pubchem assays (depositor defined):AID493160, AID493190]; format: functional
T2 sequence (P19367 whole entry): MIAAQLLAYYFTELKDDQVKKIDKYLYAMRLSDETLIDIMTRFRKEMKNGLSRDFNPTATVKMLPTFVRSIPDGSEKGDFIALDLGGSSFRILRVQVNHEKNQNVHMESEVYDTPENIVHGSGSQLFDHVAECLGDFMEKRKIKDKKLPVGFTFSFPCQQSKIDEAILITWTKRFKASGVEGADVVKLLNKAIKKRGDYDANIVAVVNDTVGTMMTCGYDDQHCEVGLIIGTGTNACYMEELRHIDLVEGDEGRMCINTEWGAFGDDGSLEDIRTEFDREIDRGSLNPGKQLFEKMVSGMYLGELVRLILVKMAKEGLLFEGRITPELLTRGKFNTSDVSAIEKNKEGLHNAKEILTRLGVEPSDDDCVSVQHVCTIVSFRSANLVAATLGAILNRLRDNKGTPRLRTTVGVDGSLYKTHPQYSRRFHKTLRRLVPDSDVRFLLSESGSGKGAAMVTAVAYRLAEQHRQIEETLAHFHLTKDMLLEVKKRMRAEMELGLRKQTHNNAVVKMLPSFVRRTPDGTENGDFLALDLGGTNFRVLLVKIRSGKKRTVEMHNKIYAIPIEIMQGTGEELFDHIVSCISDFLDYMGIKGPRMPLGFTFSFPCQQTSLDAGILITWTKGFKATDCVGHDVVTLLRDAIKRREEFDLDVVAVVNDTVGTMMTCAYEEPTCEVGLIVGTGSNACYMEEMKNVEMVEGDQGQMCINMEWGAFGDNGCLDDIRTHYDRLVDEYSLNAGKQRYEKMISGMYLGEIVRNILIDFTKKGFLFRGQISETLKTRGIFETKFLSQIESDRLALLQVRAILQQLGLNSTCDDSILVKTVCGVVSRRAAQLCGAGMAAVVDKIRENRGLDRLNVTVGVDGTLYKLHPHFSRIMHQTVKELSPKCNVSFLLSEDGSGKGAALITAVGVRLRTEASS

Phospholipase D2 = Phospholipase D2 (Homo sapiens, UniProt O14939); test: PLD2 purified enzyme concentration response. [Related pubchem assays (depositor defined):AID588854]; format: functional
Phospholipase D1 = target: T3, Phospholipase D1 (Homo sapiens, UniProt Q13393); test: PLD1 purified enzyme concentration response. [Related pubchem assays (depositor defined):AID588854]; format: functional
T3 sequence (Q13393 whole entry): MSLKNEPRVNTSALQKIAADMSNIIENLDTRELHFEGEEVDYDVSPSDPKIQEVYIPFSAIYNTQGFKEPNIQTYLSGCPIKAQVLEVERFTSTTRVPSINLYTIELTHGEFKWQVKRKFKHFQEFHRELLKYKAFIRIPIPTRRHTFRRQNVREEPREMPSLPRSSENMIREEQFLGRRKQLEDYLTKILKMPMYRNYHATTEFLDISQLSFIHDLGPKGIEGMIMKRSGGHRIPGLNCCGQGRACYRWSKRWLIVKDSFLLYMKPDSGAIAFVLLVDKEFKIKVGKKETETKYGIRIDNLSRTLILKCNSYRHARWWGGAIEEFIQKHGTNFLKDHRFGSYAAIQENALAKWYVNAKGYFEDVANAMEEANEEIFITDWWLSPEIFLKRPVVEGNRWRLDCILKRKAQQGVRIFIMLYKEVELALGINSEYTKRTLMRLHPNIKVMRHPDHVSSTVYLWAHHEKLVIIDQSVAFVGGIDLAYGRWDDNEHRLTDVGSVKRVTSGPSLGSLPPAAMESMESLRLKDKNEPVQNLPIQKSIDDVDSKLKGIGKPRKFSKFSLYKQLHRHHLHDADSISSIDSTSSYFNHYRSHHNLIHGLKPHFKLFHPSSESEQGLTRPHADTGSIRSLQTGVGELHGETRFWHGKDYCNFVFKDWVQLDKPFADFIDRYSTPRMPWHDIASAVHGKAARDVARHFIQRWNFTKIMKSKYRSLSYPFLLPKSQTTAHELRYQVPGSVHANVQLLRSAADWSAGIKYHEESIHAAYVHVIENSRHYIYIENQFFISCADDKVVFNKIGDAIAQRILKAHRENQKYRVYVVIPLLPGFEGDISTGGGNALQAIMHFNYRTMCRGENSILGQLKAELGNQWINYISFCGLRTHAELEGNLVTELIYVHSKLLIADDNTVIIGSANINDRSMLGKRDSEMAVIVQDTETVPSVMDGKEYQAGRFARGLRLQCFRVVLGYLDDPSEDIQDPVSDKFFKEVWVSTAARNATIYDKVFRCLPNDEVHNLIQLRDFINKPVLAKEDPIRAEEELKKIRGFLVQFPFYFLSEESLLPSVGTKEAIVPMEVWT

[1] = target: T4, Rac GTPase-activating protein 1 (Homo sapiens, UniProt Q9H0H5); test: blockers of MgcRacGAP-driven Rac1 GTP hydrolysis – biochemical, ADP Hunter fluorescence, primary and confirmatory, confirmation (AID 624330); format: functional
T4 sequence (Q9H0H5 whole entry): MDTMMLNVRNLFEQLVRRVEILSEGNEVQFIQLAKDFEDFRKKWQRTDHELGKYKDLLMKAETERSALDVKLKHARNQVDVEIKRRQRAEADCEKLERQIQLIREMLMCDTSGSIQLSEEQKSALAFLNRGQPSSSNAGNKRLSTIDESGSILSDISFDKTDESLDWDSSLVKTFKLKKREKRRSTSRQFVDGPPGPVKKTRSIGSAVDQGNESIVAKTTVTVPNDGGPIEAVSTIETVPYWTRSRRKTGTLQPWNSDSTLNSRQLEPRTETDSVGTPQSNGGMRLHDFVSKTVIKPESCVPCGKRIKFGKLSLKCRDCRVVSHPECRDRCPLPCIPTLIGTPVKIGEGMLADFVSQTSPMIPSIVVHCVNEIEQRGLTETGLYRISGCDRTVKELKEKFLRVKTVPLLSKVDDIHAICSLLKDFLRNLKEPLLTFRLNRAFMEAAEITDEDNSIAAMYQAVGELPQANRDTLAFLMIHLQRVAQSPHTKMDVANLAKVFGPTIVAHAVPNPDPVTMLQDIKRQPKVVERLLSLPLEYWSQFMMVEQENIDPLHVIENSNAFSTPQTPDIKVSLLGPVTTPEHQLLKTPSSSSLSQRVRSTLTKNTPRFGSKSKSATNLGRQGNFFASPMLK

Streptococcus = test: GAS UMAA2166 growth inhibition – luminescence, BacTiterGlo, counter-screen for streptokinase expression inhibitor project, dose response (AID 1915); format: functional, organism-based;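 note: potency for reduction of bacterial viability or growth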
NS3 = NS3 (Hepatitis C virus, UniProt A3EZJ3); test: PubChem AID 2173; design: species or system Hepacivirus hominis
[2] = blockers of HIV-1 ZM109 envelope-driven cell-cell fusion – HeLa effector, CEM target cells, luciferase, cherry-pick, dose response (AID 652058); format: functional, cell-based;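 note: luciferase signal from HIV-1 Env mediated cell-cell fusion of effector and target cells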
[3] = blockers of HIV-1 envelope-mediated cell-cell fusion – cherry-pick, dose response (AID 652057); format: functional, cell-based
Salmon testes DNA = test: acridine orange-DNA binding displacement – biochemical, fluorescence polarization, cherry-picked samples, set 2, artefact control for KSHV LANA DNA-binding inhibitor project, dose response (AID 504727); design: species or system Salmonidae
[4] = HIV-1 AD8 envelope cell-cell fusion blockers – cherry-pick, dose response (AID 652062); format: functional, cell-based;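 note: luciferase signal from cell-cell fusion driven by HIV-1 clade B AD8 Env; potency is for inhibitors of fusion seen as a drop in luminescence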
Escherichia coli [5] = test: microbe, parasite or virus in culture
[6] = viability loss in THP-1 monocytes – THP-1 cells, cytotoxicity control for Vif-APOBEC3G degradation inhibitor project, dose response (AID 1117359); format: functional; details: THP-1
Escherichia coli [7] = test: microbe, parasite or virus in culture; remark: listed apart in the source
[8] = off-target signal loss in HeLa-CEM21 co-culture – HeLa F-luc CTL cells, cherry-picked, counter-screen for HIV-1 Env fusion inhibitor project, dose response (AID 652040); format: functional, cell-based;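 note: potency for signal decrease marking cytotoxic or nonspecific inhibition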
Bcl-2-like protein 1 = Bcl-2-like protein 1 (Homo sapiens, UniProt Q07817); test: blockers of BCLXL peptide binding – biochemical, fluorescence polarization, 1536-well, selectivity assay for MCL1 inhibitor project, dose response (AID 2218)
ORF 73 = target: T5, ORF 73 (Human herpesvirus 8, UniProt O40947); test: KSHV LANA DNA-binding disruption – biochemical, fluorescence polarization, cherry-picked samples, dose response (AID 504725); design: species or system Human gammaherpesvirus 8;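 note: fluorescence polarization of a labeled DNA duplex reporting LANA DNA binding; potency is for inhibitors that block LANA binding to the DNA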
T5 sequence (O40947 whole entry): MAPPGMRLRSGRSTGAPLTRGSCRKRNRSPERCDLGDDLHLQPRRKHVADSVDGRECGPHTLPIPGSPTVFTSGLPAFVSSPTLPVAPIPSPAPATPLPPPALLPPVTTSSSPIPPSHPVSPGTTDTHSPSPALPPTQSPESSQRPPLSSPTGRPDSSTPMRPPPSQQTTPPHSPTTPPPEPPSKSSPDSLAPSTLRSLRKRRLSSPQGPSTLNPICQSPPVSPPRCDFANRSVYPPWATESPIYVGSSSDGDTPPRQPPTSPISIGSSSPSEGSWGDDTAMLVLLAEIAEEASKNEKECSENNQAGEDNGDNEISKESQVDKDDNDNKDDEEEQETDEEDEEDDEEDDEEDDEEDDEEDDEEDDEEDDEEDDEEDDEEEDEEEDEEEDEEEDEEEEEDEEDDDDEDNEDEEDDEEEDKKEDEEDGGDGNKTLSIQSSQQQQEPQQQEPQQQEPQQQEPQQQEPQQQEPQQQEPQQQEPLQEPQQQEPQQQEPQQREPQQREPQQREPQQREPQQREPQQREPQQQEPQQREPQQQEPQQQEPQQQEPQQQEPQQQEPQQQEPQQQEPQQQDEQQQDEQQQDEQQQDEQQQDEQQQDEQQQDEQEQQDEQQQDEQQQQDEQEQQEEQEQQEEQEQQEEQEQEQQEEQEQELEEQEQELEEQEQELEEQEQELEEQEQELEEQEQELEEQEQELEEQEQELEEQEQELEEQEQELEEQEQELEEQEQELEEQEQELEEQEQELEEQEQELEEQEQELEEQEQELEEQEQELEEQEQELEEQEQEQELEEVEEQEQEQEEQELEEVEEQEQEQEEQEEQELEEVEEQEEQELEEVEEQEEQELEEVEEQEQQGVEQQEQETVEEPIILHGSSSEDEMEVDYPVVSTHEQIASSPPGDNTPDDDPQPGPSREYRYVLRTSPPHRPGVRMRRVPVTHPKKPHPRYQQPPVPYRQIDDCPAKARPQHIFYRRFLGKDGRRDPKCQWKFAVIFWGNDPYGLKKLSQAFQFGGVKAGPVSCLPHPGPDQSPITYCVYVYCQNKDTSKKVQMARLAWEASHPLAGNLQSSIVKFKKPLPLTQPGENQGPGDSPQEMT

[9] = target: Induced myeloid leukemia cell differentiation protein Mcl-1 (Homo sapiens, UniProt Q07820); test: blockers of MCL1 binding to BIM peptide – biochemical, fluorescence polarization, BIM-BH3 peptide, 1536-well, dose response (AID 2217)
[10] = system: Streptococcus sp. 'group A'; test: Streptococcus pyogenes SK(-)GAS viability under kanamycin – luminescence, BacTiterGlo, confirmation, counter-screen for streptokinase expression inhibitor project, dose response (AID 1900); format: functional, organism-based
Candida albicans = test: resistant Candida growth with fluconazole co-treatment – CaCi-8 strain, Alamar Blue, dry powder, set 2, dose response (AID 488909); format: functional, organism-based

Sequence of Phospholipase D2 (O14939 whole entry): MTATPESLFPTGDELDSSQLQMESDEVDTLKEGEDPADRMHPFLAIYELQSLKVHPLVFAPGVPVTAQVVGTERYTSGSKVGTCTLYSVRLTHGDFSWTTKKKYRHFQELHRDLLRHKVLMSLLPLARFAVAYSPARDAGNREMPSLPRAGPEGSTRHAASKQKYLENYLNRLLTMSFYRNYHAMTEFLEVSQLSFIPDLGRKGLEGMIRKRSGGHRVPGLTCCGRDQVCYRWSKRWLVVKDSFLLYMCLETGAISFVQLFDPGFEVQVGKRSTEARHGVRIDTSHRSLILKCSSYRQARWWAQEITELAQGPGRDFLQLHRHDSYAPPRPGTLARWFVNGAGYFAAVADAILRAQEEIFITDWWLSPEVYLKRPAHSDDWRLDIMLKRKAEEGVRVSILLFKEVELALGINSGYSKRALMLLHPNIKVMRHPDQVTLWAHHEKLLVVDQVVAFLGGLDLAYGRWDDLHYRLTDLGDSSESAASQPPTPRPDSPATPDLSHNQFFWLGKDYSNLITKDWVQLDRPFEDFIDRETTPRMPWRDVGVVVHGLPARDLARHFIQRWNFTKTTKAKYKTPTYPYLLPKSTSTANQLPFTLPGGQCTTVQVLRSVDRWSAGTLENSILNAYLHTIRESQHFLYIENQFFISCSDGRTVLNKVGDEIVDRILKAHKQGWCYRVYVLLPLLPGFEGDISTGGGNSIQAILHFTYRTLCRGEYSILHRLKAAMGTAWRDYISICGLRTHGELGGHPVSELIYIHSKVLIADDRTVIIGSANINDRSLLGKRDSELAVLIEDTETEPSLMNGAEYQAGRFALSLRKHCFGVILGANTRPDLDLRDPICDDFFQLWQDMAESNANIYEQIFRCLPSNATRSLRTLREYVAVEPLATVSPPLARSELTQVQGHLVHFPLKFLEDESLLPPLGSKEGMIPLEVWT
Sequence of Induced myeloid leukemia cell differentiation protein Mcl-1 (Q07820 whole entry): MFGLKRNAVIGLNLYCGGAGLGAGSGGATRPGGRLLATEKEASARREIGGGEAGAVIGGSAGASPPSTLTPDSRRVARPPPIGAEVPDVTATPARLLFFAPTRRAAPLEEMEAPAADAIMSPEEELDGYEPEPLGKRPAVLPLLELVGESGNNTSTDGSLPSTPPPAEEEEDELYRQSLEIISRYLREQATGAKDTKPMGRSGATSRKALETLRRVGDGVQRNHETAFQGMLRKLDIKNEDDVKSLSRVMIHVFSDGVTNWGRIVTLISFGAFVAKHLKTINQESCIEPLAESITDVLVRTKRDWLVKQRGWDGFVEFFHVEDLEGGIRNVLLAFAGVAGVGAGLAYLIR
Sequence of Bcl-2-like protein 1 (Q07817 whole entry): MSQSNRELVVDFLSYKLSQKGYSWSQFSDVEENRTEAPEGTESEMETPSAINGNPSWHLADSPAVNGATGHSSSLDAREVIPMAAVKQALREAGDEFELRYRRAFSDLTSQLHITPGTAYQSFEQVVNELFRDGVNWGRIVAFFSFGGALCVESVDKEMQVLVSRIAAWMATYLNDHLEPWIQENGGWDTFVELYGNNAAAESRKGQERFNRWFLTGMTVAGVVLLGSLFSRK
Sequence of NS3 (A3EZJ3 whole entry, the tested form may be a part): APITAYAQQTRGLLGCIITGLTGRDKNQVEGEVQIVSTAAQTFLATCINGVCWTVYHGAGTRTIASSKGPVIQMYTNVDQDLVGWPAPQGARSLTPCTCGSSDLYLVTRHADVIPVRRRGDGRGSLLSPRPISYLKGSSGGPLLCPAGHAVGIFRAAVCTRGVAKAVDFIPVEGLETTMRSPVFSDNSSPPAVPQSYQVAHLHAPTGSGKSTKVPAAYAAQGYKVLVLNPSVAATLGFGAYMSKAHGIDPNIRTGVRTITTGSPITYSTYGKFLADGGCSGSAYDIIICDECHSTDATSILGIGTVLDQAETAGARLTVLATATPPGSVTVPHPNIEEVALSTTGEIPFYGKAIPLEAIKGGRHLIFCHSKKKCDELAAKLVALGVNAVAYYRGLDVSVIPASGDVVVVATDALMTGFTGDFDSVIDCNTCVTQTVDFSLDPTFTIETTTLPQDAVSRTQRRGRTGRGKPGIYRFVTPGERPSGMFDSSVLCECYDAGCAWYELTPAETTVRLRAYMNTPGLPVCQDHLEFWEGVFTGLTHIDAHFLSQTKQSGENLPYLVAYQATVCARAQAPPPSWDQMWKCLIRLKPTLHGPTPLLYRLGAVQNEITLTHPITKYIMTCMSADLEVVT

IC50 (Hexokinase HKDC1): > 80 µM (inactive)
IC50 (Hexokinase-1): > 80 µM (inactive)
SMILES: COc1cc2c(cc1OC)-c1cc(NCc3ccc(F)cc3)nc(=O)n1CC2

SMILES: COc1cc(C(=O)NCCN2CCC3(CC2)C(=O)NCN3c2ccccc2)ccc1N
IC50 (Phospholipase D2): 0.17 µM (active)
IC50 (Phospholipase D1): 1.08 µM (active)

SMILES: CN(C)c1ccc(O)c2c1CC1CC3[C@@H](N(C)C)C(O)=C(C(N)=O)C(=O)[C@]3(O)C(O)=C1C2=O (stereo not given in full)
IC50 [1]: 120 µM (active)
EC50 (Streptococcus): 0.173 µM (active)
IC50 (NS3): > 109 µM (not active)
AC50 [2]: < 0.26 µM (active)
AC50 [3]: < 0.26 µM (active)
AC50 (Salmon testes DNA): 46.2 µM (active)
AC50 [4]: < 0.26 µM (active)
AC50 (Escherichia coli [5]): 11.2 µM (active)
CC50 [6]: > 40 µM (active)
AC50 (Escherichia coli [7]): 1.06 µM (active)
AC50 [8]: < 0.26 µM (active)
IC50 (Bcl-2-like protein 1): > 109 µM (not active)
AC50 (ORF 73): 25.6 µM (active)
IC50 [9]: 9.39 µM (active)
EC50 [10]: 0.079 µM (active)

SMILES: COc1cccc2c(N3CCN(C(=O)c4ccc(Cl)cc4)CC3)cc(C)nc12
AC50 (Candida albicans): > 260 µM (inactive)
